Where “and” joins values, the source holds several entries; their conditions need not be identical. Equal values may be shown once. Read-outs that look alike come from different tables or passages of the source.
How the values were obtained:
[1] = milogP calculated using Molinspiration Cheminformatics; details: Table SI14
[2] = log P determination by 19F NMR shake-flask method with internal fluorinated reference (octanol/water); details: for ΔlogP (exp. logP vs logP lit): Table SI12
[3] = cited from earlier work
[4] = octanol/water, logP, 19F NMR, 25 °C, average value
[5] = method and temperature not provided, ref U.S. National Library of Medicine online database (chemidplus)
[6] = octanol/water, error (mean logP to three decimals), reference TFE (+0.36)
[7] = octanol/water, logP, single experiment, reference TFE (+0.36)
[8] = Average logP, 25 °C, reference TFE (+0.36)
[9] = error (mean logP to three decimals)
[10] = logP, octanol/water, 19F NMR, 25 °C, average value
[11] = logP, single experiment, reference TFE (+0.36)
[12] = octanol/water, Average logP, 25 °C, reference TFE (+0.36)
[13] = single experiment, reference TFE (+0.36)
[14] = octanol/water, Average logP, reference 4,4,4-trifluoro-1-butanol (TB, +0.91EXP)
[15] = octanol/water, error (mean logP to three decimals), reference TB (+0.91EXP)
[16] = octanol/water, logP, single experiment, reference 4,4,4-trifluoro-1-butanol (TB, +0.91EXP)
[17] = octanol/water, Average logP, 25 °C, reference FE (-0.75)
[18] = octanol/water, error (mean logP to three decimals), reference FE (-0.75)
[19] = single experiment, reference FE (-0.75)

| ΔlogP (milogP vs logP exp) [1] | logP [2, 4] | logP [2, 6] | logP [2, 7] | logP [2, 12] | SMILES | other results |
| --- | --- | --- | --- | --- | --- | --- |
| +0.07 | 2.63 | – | – | – | CC(C)(C)[C@H]1CC[C@H](O)[C@H](F)C1 (relative stereo) [compound 42] | – |
| – | 2.61 | – | – | – | CC(C)(C)[C@H]1CC[C@H](O)[C@@H](F)C1 (relative stereo) [compound 43] | – |
| -0.51 | 3.21 | – | – | – | CC(C)(C)[C@H]1CC[C@@H](O)[C@H](F)C1 (relative stereo) [compound 44] | – |
| – | – | – | – | – | CCCC(C)O (stereo not shown) [G, 2-PentOH, reference compound] | logP (lit) [3, 5]: +1.19 |
| – | – | – | – | – | CC(C)(C)[C@H]1CC[C@H](O)CC1 [K, reference compound] | logP (lit) [3, 5]: +3.09 |
| – | – | – | – | – | CC(C)(C)[C@H]1CC[C@@H](O)CC1 [L, reference compound] | logP (lit) [3, 5]: +3.02 |
| +0.13 | 1.7 | 1.7 | 1.7 | – | Oc1ccccc1F [SI4, o-fluorophenol] | logP (lit) ([3]; method and temperature not provided, ref C. Hansch, A. Leo, Substituent constants, Wiley 1979): +1.64; logP (lit) ([3]; ref chemidplus database, Hansch, Leo 1979 and Fujita, Iwasa, Hansch 1964 (shake-flask, spectrophotometer, 25 ± 5 °C)): +1.71 |
| – | – | – | – | – | OC(CF)CF [compound 4] | logP (physchem; [8]): -0.42; logP (physchem; [9]): -0.421; logP (physchem; [10]): -0.42; logP (physchem; [11]): -0.42; Average logP ([2]; 25 °C, reference TFE (+0.36)): -0.42 |
| +0.27 | 0.7 | 0.715 | 0.712 | 0.71 | CC(O)C(F)(F)F (stereo not shown) [compound 6] | logP (lit) ([3]; ref chemidplus database, Dillingham et al. 1973 and Hansch, Leo 1979): +0.71; logP (lit) ([3]; shake-flask, 1H or 19F NMR, temperature not reported, ref N. Muller, J. Pharm. Sci. 1986): +0.70 |
| +0.48 | – | 0.038 | 0.033 | 0.04 | OCCC(F)F [compound 10] | – |
| +0.59 | 0.11 | 0.11 | 0.113 | 0.11 | CC(F)(F)CO [compound 11] | – |
| +0.47 | – | 0.414 | 0.413 | 0.41 | OCCC(F)(F)F [compound 12] | logP (lit) ([3]; ref chemidplus database and N. Muller 1986): +0.39; ΔlogP (exp. logP vs logP lit) [2]: +0.02 |
| +0.39 | – | 1.03 | 1.03 | 1.03 | CC(C)(O)C(F)(F)F [compound 14] | – |
| – | – | – | – | – | CC(O)(C(F)(F)F)C(F)(F)F [compound 15] | logP (physchem; [9]): 2.08; logP (physchem; logP): 2.08 |
| – | – | – | – | – | CC(O)CCF (stereo not shown) [compound 16] | logP (physchem; Average logP): 0.08; logP (physchem; [9]): 0.084; logP (physchem; logP): 0.077 |
| +0.46 | 0.42 | 0.417 | 0.42 | 0.42 | CC(O)CC(F)F (stereo not shown) [compound 17] | – |
| +0.53 | 0.71 | 0.721 | 0.725 | 0.72 | CC(O)CC(F)(F)F (stereo not shown) [compound 18] | ΔlogP (exp. logP vs logP lit) [2]: +0.01 |
| – | – | – | – | – | CC(O)C(F)(F)C(F)F (stereo not shown) [compound 19] | logP (physchem; Average logP): 1.05; logP (physchem; [9]): 1.05; logP (physchem; logP): 1.05 |
| – | – | – | – | – | CC(O)C(F)(F)C(F)(F)F (stereo not shown) [compound 20] | logP (physchem; Average logP): 1.53; logP (physchem; [9]): 1.53; logP (physchem; logP): 1.53 |
| – | – | – | – | – | OCCCCF [compound 21] | logP (physchem; [8]): 0.09; logP (physchem; error (mean logP to three decimals), reference TFE (+0.36)): 0.09; logP (physchem; logP): 0.092; logP (physchem; [10]): 0.09; logP (physchem; [11]): 0.09 |
| – | – | 0.173 | 0.166 | 0.17 | CC(F)CCO (stereo not shown) [compound 22, 3-fluorobutan-1-ol] | – |
| – | – | – | – | – | OCCC(F)(F)C(F)(F)F [compound 24] | logP (physchem; Average logP): 1.3; logP (physchem; [9]): 1.3; logP (physchem; logP): 1.29 |
| +0.49 | – | 0.477 | 0.476 | 0.48 | C[C@H](O)C[C@@H](C)F [compound 26] | logP [2, 13]: +0.476 |
| +0.40 | 0.57 | 0.569 | 0.57 | 0.57 | C[C@H](O)C[C@H](C)F [compound 27] | – |

| ΔlogP (milogP vs logP exp) [1] | logP [2, 4] | logP [2, 6] | logP [2, 7] | logP [2, 12] | SMILES | other results |
| --- | --- | --- | --- | --- | --- | --- |
| +0.67 | – | 0.662 | 0.659 | 0.66 | CC(O)CC(C)(F)F (stereo not shown) [compound 28] | – |
| – | – | 1.82 | 1.83 | 1.82 | CCCC(O)C(F)(F)F (stereo not shown) [compound 29, 1,1,1-trifluoropentan-2-ol] | – |
| – | – | – | – | – | OCCCCCF [compound 30, 5-fluoro-1-pentanol] | logP (physchem; Average logP): 0.52; logP (physchem; [9]): 0.524; logP (physchem; logP): 0.524 |
| – | – | 0.522 | 0.517 | 0.52 | CC(F)CCCO (stereo not shown) [compound 31, 4-fluoropentan-1-ol] | – |
| – | – | 0.708 | 0.712 | 0.71 | CC(F)(F)CCCO [compound 32, 4,4-difluoropentan-1-ol] | logP [2, 13]: +0.712 |
| – | – | 0.868 | 0.872 | 0.87 | CCCC(F)CO (stereo not shown) [compound 33, 2-fluoropentan-1-ol] | logP ([2]; multiple acquisitions of one sample (Table SI7), single acquisition, reference 2,2,2-trifluoroethanol): 0.5206 and 0.5160 and 0.5224 and 0.5294 and 0.5210 and 0.5213; logP ([2]; multiple reprocessing of one FID (Table SI8), single reprocessing): 0.5205 and 0.5167 and 0.5166 and 0.5215 and 0.5186; logP ([2]; octanol/water, logP Average, seven acquisitions (Table SI7)): 0.521; logP ([2]; octanol/water, logP Average, seven reprocessings (Table SI8)): 0.518; logP ([2]; octanol/water, logP, multiple acquisitions of one sample (Table SI7), single acquisition, reference 2,2,2-trifluoroethanol): 0.517; logP ([2]; octanol/water, logP, multiple reprocessing of one FID (Table SI8), single reprocessing): 0.513 |
| – | – | – | – | – | OCCCC(F)(F)C(F)F [compound 34, 4,4,5,5-tetrafluoropentan-1-ol] | logP (physchem; Average logP): 0.97; logP (physchem; [9]): 0.974; logP (physchem; logP): 0.971 |
| – | – | – | – | – | OCCCC(F)(F)C(F)(F)F [compound 36] | logP (physchem; Average logP): 1.72; logP (physchem; [9]): 1.72; logP (physchem; logP): 1.73 |
| +0.40 | 1.58 | – | – | – | CC[C@H](O)C[C@H](F)CC [compound 37] | logP [2, 14]: 1.58; logP [2, 15]: 1.58; logP [2, 16]: 1.58 |
| +0.27 | 1.71 | – | – | – | CC[C@H](O)C[C@@H](F)CC [compound 38] | logP [2, 14]: 1.71; logP [2, 15]: 1.71; logP [2, 16]: 1.69 |
| +0.63 | – | – | – | – | OC[C@H](F)[C@@H](F)CO [compound 39] | logP [2, 17]: -1.01; logP [2, 18]: -1.01; logP [2, 19]: -1.006 and -1.012 |
| +0.59 | – | – | – | – | OC[C@@H](F)[C@@H](F)CO [compound 40] | logP [2, 17]: -0.97; logP ([2]; octanol/water, Average logP, internal validation, reference -1.01EXP): -0.98; logP ([2]; octanol/water, error (mean logP to three decimals), internal validation, reference -1.01EXP): -0.98; logP [2, 18]: -0.968; logP ([2]; single experiment, internal validation, reference -1.01EXP): -0.981 and -0.984 and -0.975; logP [2, 19]: -0.957 |
| – | – | – | – | – | OCC(F)(F)C(F)(F)CO [compound 41] | logP (physchem; Average logP): -0.11; logP (physchem; [9]): -0.109 |
| – | 2.23 | – | – | – | CC(C)(C)C1CCC(O)CC1F (stereo not shown) [compound 45] | – |
| +0.32 | -2.47 | – | – | – | O=C[C@H](O)[C@@H](F)[C@@H](O)[C@H](O)CO [compound 46, 3-Fluoro-3-deoxy-D-galactose] | – |
| +0.44 | -2.37 | – | – | – | O=C[C@H](F)[C@@H](O)[C@@H](O)[C@H](O)CO [compound 47, 2-Fluoro-2-deoxy-D-galactose] | – |
| +0.65 | -2.36 | – | – | – | O=C[C@H](O)[C@@H](O)[C@H](O)[C@H](O)CF [compound 48, 6-Fluoro-6-deoxy-D-glucose] | – |
| +0.28 | -2.21 | – | – | – | O=C[C@H](F)[C@@H](O)[C@H](O)[C@H](O)CO [compound 49, 2-Fluoro-2-deoxy-D-glucose] | – |
| – | -2.11 | – | – | – | O=C[C@@H](F)[C@@H](O)[C@H](O)[C@H](O)CO [compound 50, 2-Fluoro-2-deoxy-D-mannose] | – |
| – | -1.45 | – | – | – | OC[C@H]1OC(O)C[C@@H](F)[C@@H]1O (stereo partly drawn) [compound 51, 2,3-Dideoxy-3-fluoro-D-glucopyranose] | – |
| – | -1.11 | – | – | – | OC[C@H]1OC(O)[C@H](F)[C@@H](F)[C@@H]1O (stereo partly drawn) [compound 52, 2,3-Dideoxy-2,3-difluoro-D-glucopyranose] | logP ([2]; octanol/water, log P units more lipophilic than Glc, relative to glucose): ~2.1; logP ([2]; octanol/water, logP, single experiment, reference FE (-0.75)): -1.11 |
| +0.07 | – | -0.576 | – | -0.58 | OC[C@H]1OC(O)C(F)(F)C(F)(F)[C@H]1O (stereo partly drawn) [compound 53, 2,3-Dideoxy-2,2,3,3-tetrafluoro-D-threo-hexopyranose] | logP [2, 13]: -0.574 and -0.573 and -0.583 |
| – | – | – | -0.316 | -0.32 | OC[C@H]1OC(O)C(F)(F)C(F)(F)[C@@H]1O (stereo partly drawn) [compound 54, 2,3-Dideoxy-2,2,3,3-tetrafluoro-D-erythro-hexopyranose] | – |

| SMILES | ΔlogP (milogP vs logP exp) [1] | logP [2, 4] | logP [2, 6] | logP [2, 7] | logP [2, 12] | other results |
| --- | --- | --- | --- | --- | --- | --- |
| OCC(F)(F)F [compound 3, 2,2,2-Trifluoroethanol] | +0.25 | – | – | – | – | – |
| OC(C(F)(F)F)C(F)(F)F [compound 7] | – | – | 1.69 | 1.69 | 1.69 | logP (lit) [3, 5]: +1.66; ΔlogP (exp. logP vs logP lit) [2]: +0.03 |

From paper PMC4832822, “Investigating the Influence of (Deoxy)fluorination on the Lipophilicity of Non‐UV‐Active Fluorinated Alkanols and Carbohydrates by a New log P Determination Method” (Angewandte Chemie (International Ed. in English), 2015)
